Converted amounts (≈) assume the structure as drawn. *1 amine or outer side, *2 acyl side, *3 side chain or, on linkers, in order; H or OH if unused. Where a SMILES comes first, the peptide text is derived from it. Bridges are numbered along the chain shown (N, C = ends). [ ]: non-standard residue; d: D form. The star is where a group is joined. hTyr(3S-OH,4S-OH,3'-OSO3H) = N[C@H](C(=O)O)[C@H](O)[C@@H](O)c1ccc(O)c(OS(=O)(=O)O)c1; pTerphenylCO(4''-OnC5H11) = CCCCCOc1ccc(-c2ccc(-c3ccc(C(=O)*)cc3)cc2)cc1; Orn(4R-OH,5R-OH) = O=C([C@H](C[C@@H](O)[C@@H](O)N[*:3])N[*:1])[*:2]; hTyr(3S-OH,4S-OH) = N[C@H](C(=O)O)[C@H](O)[C@@H](O)c1ccc(O)cc1; Pro(3S-OH,4S-Me) = C[C@H]1CN[C@H](C(=O)O)[C@H]1O; X1 = CCCCCOc1ccc(-c2cc(-c3ccc(C(=O)*)cc3)no2)cc1; Gln(3R-OH) = NC(=O)C[C@@H](O)[C@H](N)C(=O)O; Hyp = O=C(O)[C@@H]1C[C@@H](O)CN1
Columns and labels:
[1] = Inhibition of Candida tropicalis T7 blood stream isolate glucan synthase subunit FKS1p at monophasic kinetics
[2] = Inhibition of Candida albicans 205 glucan synthase subunit FKS1p FLTLPLRDP mutant at monophasic kinetics
[3] = target: T1, Beta-1,3-glucan synthase (Candida albicans, UniProt O13383); experiment: Inhibition of Candida albicans ATCC 90028 glucan synthase at monophasic kinetics
T1 sequence (O13383 whole entry): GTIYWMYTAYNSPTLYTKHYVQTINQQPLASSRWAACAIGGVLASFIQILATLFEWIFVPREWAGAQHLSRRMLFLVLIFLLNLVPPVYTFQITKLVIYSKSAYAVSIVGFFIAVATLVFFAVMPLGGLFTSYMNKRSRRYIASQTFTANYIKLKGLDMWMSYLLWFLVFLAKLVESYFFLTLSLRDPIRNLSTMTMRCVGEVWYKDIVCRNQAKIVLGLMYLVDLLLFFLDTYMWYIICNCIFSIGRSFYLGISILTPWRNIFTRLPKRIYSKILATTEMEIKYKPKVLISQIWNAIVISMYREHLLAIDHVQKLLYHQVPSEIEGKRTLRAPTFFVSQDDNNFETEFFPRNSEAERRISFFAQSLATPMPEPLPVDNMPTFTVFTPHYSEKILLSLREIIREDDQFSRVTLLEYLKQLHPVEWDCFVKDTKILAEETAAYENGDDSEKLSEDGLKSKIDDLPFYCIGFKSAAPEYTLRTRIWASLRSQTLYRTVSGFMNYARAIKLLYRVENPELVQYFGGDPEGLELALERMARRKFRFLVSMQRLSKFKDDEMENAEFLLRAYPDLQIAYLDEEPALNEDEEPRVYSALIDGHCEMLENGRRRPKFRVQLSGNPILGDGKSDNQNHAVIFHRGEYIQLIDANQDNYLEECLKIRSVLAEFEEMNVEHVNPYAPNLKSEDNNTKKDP

[4] = tested on: Candida albicans; experiment: Antifungal activity against Candida albicans 205 harboring Fks1p FLTLPLRDP mutant protein; assay type: functional
[5] = target: 1,3-beta-D-glucan synthase subunit 1 (Candida tropicalis, UniProt B6S6L8, F76L); experiment: Inhibition of Candida tropicalis T26 blood stream isolate glucan synthase subunit FKS1p with LLTLSLRDP mutant at monophasic kinetics
[6] = target: T2, 1,3-beta-D-glucan synthase subunit 1 (Candida tropicalis, UniProt B6S6L8, S80P); experiment: Inhibition of Candida tropicalis T19 blood stream isolate glucan synthase subunit FKS1p with FLTLS/PLRDP mutant at biphasic kinetics
[7] = target: T2, 1,3-beta-D-glucan synthase subunit 1; experiment: Inhibition of Candida tropicalis T3 blood stream isolate glucan synthase subunit FKS1p with FLTLS/PLRDP mutant at biphasic kinetics
[8] = tested on: Candida albicans; experiment: Antifungal activity against Candida albicans ATCC 90028; assay type: functional
[9] = tested on: Candida tropicalis; experiment: Antifungal activity against Candida tropicalis T26 blood stream isolate harboring Fks1p LLTLSLRDP mutant protein; assay type: functional
[10] = tested on: Candida tropicalis; experiment: Antifungal activity against Candida tropicalis T3 blood stream isolate harboring Fks1p FLTLS/PLRDP mutant protein; assay type: functional
[11] = target: T2, 1,3-beta-D-glucan synthase subunit 1; experiment: Inhibition of Candida tropicalis T3 blood stream isolate glucan synthase subunit FKS1p with FLTLS/PLRDP mutant at monophasic kinetics
[12] = tested on: Candida tropicalis; experiment: Antifungal activity against Candida tropicalis ATCC 750; assay type: functional
[13] = Inhibition of Candida tropicalis ATCC 750 glucan synthase subunit FKS1p at monophasic kinetics
[14] = tested on: Candida tropicalis; experiment: Antifungal activity against Candida tropicalis T19 blood stream isolate harboring Fks1p FLTLS/PLRDP mutant protein; assay type: functional
[15] = tested on: Candida tropicalis; experiment: Antifungal activity against Candida tropicalis T7 blood stream isolate; assay type: functional
[16] = target: T2, 1,3-beta-D-glucan synthase subunit 1; experiment: Inhibition of Candida tropicalis T19 blood stream isolate glucan synthase subunit FKS1p with FLTLS/PLRDP mutant at monophasic kinetics

T2 sequence (B6S6L8 entry or part of it S80P): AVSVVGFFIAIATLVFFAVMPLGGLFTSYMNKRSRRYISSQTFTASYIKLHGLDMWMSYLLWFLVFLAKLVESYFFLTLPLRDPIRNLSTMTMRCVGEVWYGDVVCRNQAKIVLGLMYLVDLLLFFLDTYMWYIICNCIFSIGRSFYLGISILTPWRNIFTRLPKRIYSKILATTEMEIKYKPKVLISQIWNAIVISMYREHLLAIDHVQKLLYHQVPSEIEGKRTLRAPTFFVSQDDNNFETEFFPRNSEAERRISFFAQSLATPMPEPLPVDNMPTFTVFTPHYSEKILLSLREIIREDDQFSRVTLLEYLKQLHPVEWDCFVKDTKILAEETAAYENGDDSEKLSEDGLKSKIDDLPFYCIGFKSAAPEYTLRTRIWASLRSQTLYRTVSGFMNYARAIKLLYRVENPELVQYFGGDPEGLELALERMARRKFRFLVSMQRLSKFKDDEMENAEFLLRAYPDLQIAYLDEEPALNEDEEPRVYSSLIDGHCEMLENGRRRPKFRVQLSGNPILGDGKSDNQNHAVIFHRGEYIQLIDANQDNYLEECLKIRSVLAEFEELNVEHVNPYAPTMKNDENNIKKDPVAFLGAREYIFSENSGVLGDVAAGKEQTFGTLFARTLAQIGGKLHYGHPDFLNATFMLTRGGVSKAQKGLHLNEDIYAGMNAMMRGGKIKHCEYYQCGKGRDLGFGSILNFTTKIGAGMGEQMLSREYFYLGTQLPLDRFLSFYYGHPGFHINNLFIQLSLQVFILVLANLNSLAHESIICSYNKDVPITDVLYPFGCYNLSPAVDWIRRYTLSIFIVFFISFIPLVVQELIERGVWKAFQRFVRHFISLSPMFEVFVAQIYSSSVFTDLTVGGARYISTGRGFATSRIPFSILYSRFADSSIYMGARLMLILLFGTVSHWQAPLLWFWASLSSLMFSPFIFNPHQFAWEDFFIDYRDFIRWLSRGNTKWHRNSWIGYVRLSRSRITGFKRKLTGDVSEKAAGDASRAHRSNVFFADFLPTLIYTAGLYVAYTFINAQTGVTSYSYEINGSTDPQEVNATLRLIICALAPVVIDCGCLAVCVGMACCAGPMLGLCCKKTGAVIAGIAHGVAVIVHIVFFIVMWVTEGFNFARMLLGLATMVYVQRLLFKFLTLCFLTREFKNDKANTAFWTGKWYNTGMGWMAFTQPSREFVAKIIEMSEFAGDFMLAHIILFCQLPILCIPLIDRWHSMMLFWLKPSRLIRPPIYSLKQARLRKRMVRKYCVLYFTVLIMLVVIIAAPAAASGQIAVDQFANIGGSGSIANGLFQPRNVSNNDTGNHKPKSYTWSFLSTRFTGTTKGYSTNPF
Sequence of 1,3-beta-D-glucan synthase subunit 1 (Candida tropicalis, UniProt B6S6L8, F76L) (B6S6L8 entry or part of it F76L): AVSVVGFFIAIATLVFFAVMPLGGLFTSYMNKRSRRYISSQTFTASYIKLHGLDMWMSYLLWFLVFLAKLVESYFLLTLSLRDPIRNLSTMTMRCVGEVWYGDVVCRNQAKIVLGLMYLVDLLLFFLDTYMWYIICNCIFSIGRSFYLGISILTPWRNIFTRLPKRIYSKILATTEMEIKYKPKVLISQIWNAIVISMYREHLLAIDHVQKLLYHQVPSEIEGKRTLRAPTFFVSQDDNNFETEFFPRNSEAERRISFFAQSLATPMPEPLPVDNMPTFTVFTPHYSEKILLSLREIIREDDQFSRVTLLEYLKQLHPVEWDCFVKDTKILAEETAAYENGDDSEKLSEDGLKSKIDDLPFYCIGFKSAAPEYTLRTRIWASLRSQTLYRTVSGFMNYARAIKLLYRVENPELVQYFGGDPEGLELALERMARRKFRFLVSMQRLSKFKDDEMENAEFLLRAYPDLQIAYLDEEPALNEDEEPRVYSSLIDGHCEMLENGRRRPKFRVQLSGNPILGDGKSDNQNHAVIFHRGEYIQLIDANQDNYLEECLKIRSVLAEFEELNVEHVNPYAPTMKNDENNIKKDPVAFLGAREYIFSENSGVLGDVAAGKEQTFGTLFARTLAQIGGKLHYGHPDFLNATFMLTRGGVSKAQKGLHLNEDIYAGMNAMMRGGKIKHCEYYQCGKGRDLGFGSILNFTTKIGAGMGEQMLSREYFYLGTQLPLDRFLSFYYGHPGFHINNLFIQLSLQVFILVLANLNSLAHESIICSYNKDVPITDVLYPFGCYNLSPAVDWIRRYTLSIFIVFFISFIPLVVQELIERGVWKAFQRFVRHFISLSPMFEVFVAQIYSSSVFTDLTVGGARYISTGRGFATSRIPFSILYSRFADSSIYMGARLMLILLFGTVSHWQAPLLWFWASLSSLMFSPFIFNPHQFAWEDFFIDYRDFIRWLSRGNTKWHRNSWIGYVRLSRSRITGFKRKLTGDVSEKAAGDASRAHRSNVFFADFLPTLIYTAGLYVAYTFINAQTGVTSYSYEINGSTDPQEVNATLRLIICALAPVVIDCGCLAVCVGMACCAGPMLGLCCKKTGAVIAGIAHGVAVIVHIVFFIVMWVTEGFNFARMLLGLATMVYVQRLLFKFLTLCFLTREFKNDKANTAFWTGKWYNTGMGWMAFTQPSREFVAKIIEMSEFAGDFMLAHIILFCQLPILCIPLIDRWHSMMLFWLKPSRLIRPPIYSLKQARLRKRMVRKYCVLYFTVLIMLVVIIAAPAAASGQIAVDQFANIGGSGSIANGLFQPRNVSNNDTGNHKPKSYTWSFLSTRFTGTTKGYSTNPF

Row | Compound | IC50 [1] [µg/mL] | IC50 [2] [µg/mL] | IC50 [3] [nM] | MIC [4] [µg/mL] | IC50 [5] [nM] | IC50 [6] [nM] | IC50 [7] [nM] | MIC [8] [µg/mL] | MIC [9] [µg/mL] | MIC [10] [µg/mL] | IC50 [11] [nM] | MIC [12] [µg/mL] | IC50 [13] [µg/mL] | MIC [14] [µg/mL] | MIC [15] [µg/mL] | IC50 [16] [nM]
1 | CC[C@H](C)C[C@H](C)CCCCCCCCC(=O)N[C@H]1C[C@@H](O)[C@@H](NCCN)NC(=O)[C@@H]2[C@@H](O)CCN2C(=O)[C@H]([C@H](O)CCN)NC(=O)[C@H]([C@H](O)[C@@H](O)c2ccc(O)cc2)NC(=O)[C@@H]2C[C@@H](O)CN2C(=O)[C@H]([C@@H](C)O)NC1=O [CASPOFUNGIN] | 0.007652 (≈ 0.007 µM) | 0.2454 (≈ 0.224 µM) | 0.457 | 8 (≈ 7.32 µM) | 70.3 | 241 | 338 | 0.12 (≈ 0.11 µM) | 1 (≈ 0.915 µM) | 4 (≈ 3.66 µM) | 0.28 | 0.25 (≈ 0.229 µM) | 0.002331 (≈ 0.00213 µM) | 4 (≈ 3.66 µM) | 0.5 (≈ 0.457 µM) | 0.271
2 | CCC(C)n1ncn(-c2ccc(N3CCN(c4ccc(OCC5COC(Cn6cncn6)(c6ccc(Cl)cc6Cl)O5)cc4)CC3)cc2)c1=O (stereo not drawn) [ITRACONAZOLE] | – | – | – | – | – | – | – | – | 0.125 (≈ 0.177 µM) | 0.5 (≈ 0.709 µM) | – | – | – | 1 (≈ 1.42 µM) | 0.25 (≈ 0.354 µM) | –
3 | C[C@@H](c1ncncc1F)[C@](O)(Cn1cncn1)c1ccc(F)cc1F [VORICONAZOLE] | – | – | – | – | – | – | – | – | 0.03 (≈ 0.0859 µM) | 1 (≈ 2.86 µM) | – | – | – | 2 (≈ 5.73 µM) | 0.06 (≈ 0.172 µM) | –
4 | CCCCCOc1ccc(-c2ccc(-c3ccc(C(=O)N[C@H]4C[C@@H](O)[C@@H](O)NC(=O)[C@@H]5[C@@H](O)[C@@H](C)CN5C(=O)[C@H]([C@@H](C)O)NC(=O)[C@H]([C@H](O)[C@@H](O)c5ccc(O)cc5)NC(=O)[C@@H]5C[C@@H](O)CN5C(=O)[C@H]([C@@H](C)O)NC4=O)cc3)cc2)cc1 [ANIDULAFUNGIN] ({pTerphenylCO(4''-OnC5H11)}-[Orn(4R-OH,5R-OH)]T[Hyp][hTyr(3S-OH,4S-OH)]T[Pro(3S-OH,4S-Me)]; lactam 1-C) | 0.002689 (≈ 0.00236 µM) | 0.989 (≈ 0.867 µM) | 1.6 | 2 (≈ 1.75 µM) | 27.7 | 357 | 205 | 0.03 (≈ 0.0263 µM) | 0.5 (≈ 0.438 µM) | 2 (≈ 1.75 µM) | 0.281 | 0.06 (≈ 0.0526 µM) | 0.004661 (≈ 0.00409 µM) | 1 (≈ 0.877 µM) | 0.12 (≈ 0.105 µM) | 0.503
5 | CC[C@@H]([C@H](C)O)n1ncn(-c2ccc(N3CCN(c4ccc(OC[C@@H]5CO[C@@](Cn6cncn6)(c6ccc(F)cc6F)C5)cc4)CC3)cc2)c1=O [POSACONAZOLE] | – | – | – | – | – | – | – | – | 0.06 (≈ 0.0856 µM) | 0.25 (≈ 0.357 µM) | – | – | – | 1 (≈ 1.43 µM) | 0.25 (≈ 0.357 µM) | –
6 | OC(Cn1cncn1)(Cn1cncn1)c1ccc(F)cc1F [FLUCONAZOLE] | – | – | – | – | – | – | – | – | 0.5 (≈ 1.63 µM) | 8 (≈ 26.1 µM) | – | – | – | 32 (≈ 104 µM) | 0.25 (≈ 0.816 µM) | –
7 | CCCCCOc1ccc(-c2cc(-c3ccc(C(=O)N[C@H]4C[C@@H](O)[C@@H](O)NC(=O)[C@@H]5[C@@H](O)[C@@H](C)CN5C(=O)[C@H]([C@H](O)CC(N)=O)NC(=O)[C@H]([C@H](O)[C@@H](O)c5ccc(O)c(OS(=O)(=O)O)c5)NC(=O)[C@@H]5C[C@@H](O)CN5C(=O)[C@H]([C@@H](C)O)NC4=O)cc3)no2)cc1 [MICAFUNGIN] (X1-[Orn(4R-OH,5R-OH)]T[Hyp][hTyr(3S-OH,4S-OH,3'-OSO3H)][Gln(3R-OH)][Pro(3S-OH,4S-Me)]; lactam 1-C) | 0.006168 (≈ 0.00486 µM) | 1.085 (≈ 0.854 µM) | 14.8 | 4 (≈ 3.15 µM) | 59.6 | 223 | 228 | 0.03 (≈ 0.0236 µM) | 0.5 (≈ 0.394 µM) | 2 (≈ 1.57 µM) | 0.117 | 0.06 (≈ 0.0472 µM) | 0.007545 (≈ 0.00594 µM) | 2 (≈ 1.57 µM) | 0.06 (≈ 0.0472 µM) | –

— ChEMBL document CHEMBL1275554, “Caspofungin-resistant Candida tropicalis strains causing breakthrough fungemia in patients at high risk for hematologic malignancies” (Antimicrob Agents Chemother, 2008)
